From US8563513B2, “Parathyroid hormone peptides and parathyroid hormone-related protein peptides and methods of use” (Van Andel Research Institute, priority 2009, dated 2013)
pIC50, pKd: −log10 of the molar value. Like-named read-outs stand apart in the source and are kept apart here. Where no end group is shown, it is not given here.

Columns and labels:
[1] = target: T1, G protein-coupled receptor (RG) conformation of PTH1R (Homo sapiens, UniProt Q03431); assay: Receptor binding assay in cell membranes, RG conformation; conditions: for IC50: n = 3, receptor co-expressed with dominant negative Gαs
T1 construct: expressed in transfected cells
T1 sequence (Q03431 27-593): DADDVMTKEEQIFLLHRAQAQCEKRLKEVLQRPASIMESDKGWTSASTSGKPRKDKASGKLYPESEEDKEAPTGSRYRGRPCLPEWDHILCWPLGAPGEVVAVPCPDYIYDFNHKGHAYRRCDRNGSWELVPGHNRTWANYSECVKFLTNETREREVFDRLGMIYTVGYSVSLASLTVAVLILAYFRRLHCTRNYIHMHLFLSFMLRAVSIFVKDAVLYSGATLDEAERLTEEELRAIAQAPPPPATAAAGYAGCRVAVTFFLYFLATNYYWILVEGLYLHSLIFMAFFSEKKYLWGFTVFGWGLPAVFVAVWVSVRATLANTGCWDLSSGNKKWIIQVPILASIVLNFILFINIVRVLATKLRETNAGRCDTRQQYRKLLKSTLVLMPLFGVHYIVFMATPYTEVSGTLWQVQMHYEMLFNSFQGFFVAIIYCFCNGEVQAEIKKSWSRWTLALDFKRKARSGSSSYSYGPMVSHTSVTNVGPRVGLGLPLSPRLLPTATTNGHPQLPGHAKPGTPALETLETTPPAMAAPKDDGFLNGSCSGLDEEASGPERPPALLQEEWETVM
Experimental: (§1) Receptor binding assay. Peptide binding to the G protein-uncoupled receptor (R0) and G protein-coupled receptor (RG) conformations in cell membranes was assessed as previously described (26).
(§2) Experimentally, the R0 conformation is studied by including GTPγS in the reactions to uncouple receptor and G protein and the RG conformation is studied by co-expressing the receptor with a dominant negative form of Gαs (23, 25).

[2] = target: T2, MBP-PTH1R ECD-H6 fusion protein (Homo sapiens, UniProt Q03431); assay: AlphaScreen ECD-peptide competition binding assay; conditions: for pIC50: biotinylated PTH(7-34)NH2 23 nM, MBP-PTH1R ECD 23 nM, read-out: IC50, competition of the AlphaScreen interaction; for ECD-binding (ability to compete biotin-PTH / MBP-PTH1R-ECD interaction): single point, peptide 20 μM, in words
T2 construct: fusion protein containing residues 29-187 of PTH1R fused to the C-terminus of MBP; made in house; host or cells: E. coli
T2 sequence (Q03431 29-187): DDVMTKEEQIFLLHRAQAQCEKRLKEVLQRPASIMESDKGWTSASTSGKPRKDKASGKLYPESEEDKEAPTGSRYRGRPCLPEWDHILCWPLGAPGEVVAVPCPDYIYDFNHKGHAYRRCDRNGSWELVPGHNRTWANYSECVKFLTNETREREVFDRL
Experimental: ECD-peptide binding assays. The binding of peptides to the MBP-PTH1R ECD-H6 fusion protein was assessed using an AlphaScreen assay (Perkin-Elmer). […] The pre-coupling reactions were mixed, un-labeled competitor peptides were added as indicated, and the reactions were incubated 4 to 5 hrs to reach equilibrium. Photon counts were recorded in 384-well optiplates using an Envision 2104 plate reader (Perkin-Elmer). Prism 5.0 software (GraphPad Software, San Diego) was used to fit the data to a fixed-slope dose-response inhibition equation for determination of IC50 values. Real-time analysis of the binding of peptides to the isolated PTH1R ECD using the Octet Red system (ForteBio) was performed as described in below.

[3] = target: T3, G protein-uncoupled receptor (R0) conformation of PTH1R (Homo sapiens, UniProt Q03431); assay: Receptor binding assay in cell membranes, R0 conformation; conditions: for R0 affinity compared to wild-type: in words; for RO/RG: ratio of R0 and RG IC50
T3 sequence (Q03431 27-593): T1 sequence (Q03431 27-593)
Experimental: as §1, §2

[4] = target: T3, G protein-uncoupled receptor (R0) conformation of PTH1R; conditions: in words, reference (26); cited from earlier work
[5] = target: T1, G protein-coupled receptor (RG) conformation of PTH1R; conditions: in words, reference (26); cited from earlier work
PTH1R ECD = target: T4, PTH1R ECD (Homo sapiens, UniProt Q03431); conditions: previous work (27); cited from earlier work
T4 sequence (Q03431 27-186 limits assumed): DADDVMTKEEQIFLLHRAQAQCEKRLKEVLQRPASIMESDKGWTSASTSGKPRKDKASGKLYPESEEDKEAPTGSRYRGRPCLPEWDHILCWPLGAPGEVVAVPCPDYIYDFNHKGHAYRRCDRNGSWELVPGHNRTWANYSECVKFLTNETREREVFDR

hPTH1R = target: T5, hPTH1R (Homo sapiens, UniProt Q03431); assay: cAMP accumulation dose-response assay in COS cells; format: cell-based
T5 construct: expressed in transfected cells; host or cells: COS-1 cells (ATCC), transient, DEAE-dextran
T5 sequence (Q03431 27-593): T1 sequence (Q03431 27-593)
Experimental: COS cells transiently expressing PTH1R were stimulated with the indicated peptides for 30 min at 37° C. after which the cells were lysed and cAMP content was assessed. […] The cells were stimulated with the indicated peptide for 10 min at room temperature, the ligand was washed out, and cAMP accumulation was assessed at the indicated times after wash out. The results are the average of duplicate samples and are normalized to the level of cAMP induced during the initial stimulation.
cAMP assays. COS-1 cells obtained from American Type Culture Collection (Manassas, Va.) were cultured in Dulbecco's modified Eagle's medium supplemented with 10% fetal bovine serum in a 37° C./5% CO2 incubator. 500,000 cells were seeded in a 10 cm dish and transfected the following morning by the DEAE-dextran method with 3 μg pcDNA3.1 vector encoding hPTH1R. Approximately 40,000 transfected cells were seeded in each well of a 96-well plate 24 hr post-transfection. 48 hrs post-transfection the cells were washed twice with PBS, pH 7.4 and stimulated with peptide. […] The reactions were stopped with cold 6% perchloric acid and the cell lysates were neutralized with KHCO3. cAMP was measured with a LANCE cAMP kit (Perkin-Elmer) according to the manufacturer's instructions. […]

[6] = read-out: IC50 Log M RG (converted)

Row | Molecule | IC50 [1, 6] [nM] | RO/RG [3] | other results
1 | CC[C@H](C)[C@H](NC(=O)[C@H](CC(C)C)NC(=O)[C@H](CCCCN)NC(=O)[C@H](CCCNC(=N)N)NC(=O)[C@H](CC(C)C)NC(=O)[C@H](Cc1c[nH]c2ccccc12)NC(=O)[C@H](CCC(=O)O)NC(=O)[C@@H](NC(=O)[C@H](CCCNC(=N)N)NC(=O)[C@H](CCC(=O)O)NC(=O)[C@H](CCSC)NC(=O)[C@H](CO)NC(=O)[C@H](CC(N)=O)NC(=O)[C@H](CC(C)C)NC(=O)[C@H](Cc1c[nH]cn1)NC(=O)[C@H](CCCCN)NC(=O)CNC(=O)[C@H](CC(C)C)NC(=O)[C@H](CC(N)=O)NC(=O)[C@H](Cc1c[nH]cn1)NC(=O)[C@H](CCSC)NC(=O)[C@H](CC(C)C)NC(=O)[C@H](CCC(N)=O)NC(=O)[C@@H](NC(=O)[C@H](CCC(=O)O)NC(=O)[C@H](CO)NC(=O)[C@@H](NC(=O)[C@@H](N)CO)C(C)C)[C@@H](C)CC)C(C)C)C(=O)N[C@@H](CCC(N)=O)C(=O)N[C@@H](CC(=O)O)C(=O)N[C@H](C(=O)N[C@@H](Cc1c[nH]cn1)C(=O)N[C@@H](CC(N)=O)C(=O)N[C@@H](Cc1ccccc1)C(N)=O)C(C)C [K27L/L28I] | 0.316 |  | 
2 | CC[C@H](C)[C@H](NC(=O)[C@H](CC(C)C)NC(=O)[C@H](Cc1c[nH]cn1)NC(=O)[C@H](Cc1c[nH]cn1)NC(=O)[C@H](CC(C)C)NC(=O)[C@H](Cc1ccccc1)NC(=O)[C@H](Cc1ccccc1)NC(=O)[C@H](CCCNC(=N)N)NC(=O)[C@H](CCCNC(=N)N)NC(=O)[C@H](CCCNC(=N)N)NC(=O)[C@H](CC(C)C)NC(=O)[C@H](CC(=O)O)NC(=O)[C@H](CCC(N)=O)NC(=O)[C@@H](NC(=O)[C@H](CO)NC(=O)[C@H](CCCCN)NC(=O)CN)[C@@H](C)CC)C(=O)N[C@@H](C)C(=O)N[C@@H](CCC(=O)O)C(=O)N[C@H](C(=O)N[C@@H](Cc1c[nH]cn1)C(=O)N[C@H](C(=O)N[C@@H](C)C(=O)O)[C@@H](C)O)[C@@H](C)CC [PTHrP(12-34)OH, reference compound] |  |  | pIC50 [2]: ~5.70
3 | AVSEHQLLHDKGKSIQDLRRRFWLHHKLAEVHTA-NH2 [F23W/L27K/I28L/I31V] | 0.0794 | 586 | R0 affinity compared to wild-type [3]: slightly decreased R0 affinity
4 | GKHLNSMERVEWLRKKLQDVHNF-NH2 [PTH(12-34)NH2, reference compound] |  |  | pIC50 [2]: ~6.00
5 | PTH(1-28): PTH fragment 1-28, literature peptide (26) (SVSEIQLMHNLGKHLNSMERVEWLRKKL; Parathyroid hormone; UniProt P01270 32-59, looked up, fragment) |  |  | RG-selectivity compared to PTH(1-34) [4]: more RG-selective; RG affinity compared to PTH(1-34) [5]: diminished RG affinity
6 | PTH(15-34)NH2: C-terminally amidated 15-34 fragment of PTH (LNSMERVEWLRKKLQDVHNF-NH2) |  |  | pKd (PTH1R ECD): ~6.00
7 | SVSEIQLMHNLGKHLNSMERVEFLRKKIQDVHNF-NH2 [W23F/L28I] |  | 190 | IC50 ([1]; read-out: IC50 (nM) RG): 0.2 nM
8 | SVSEIQLMHNLGKHLNSMERVEFLRKKLQDIHNF-NH2 [W23F/V31I] |  | 386 | ECD-binding (ability to compete biotin-PTH / MBP-PTH1R-ECD interaction) [2]: poor ECD-binding; R0 affinity compared to wild-type [3]: dramatically reduced R0 affinity; RG affinity compared to wild-type ([1]; in words): normal RG affinity; maximal cAMP levels relative to those obtained with the wt peptides (hPTH1R; COS cells transiently expressing PTH1R): ~80%; potency of cAMP response compared to wt peptides (hPTH1R; in words): essentially the same as the wt peptides
9 | SVSEIQLMHNLGKHLNSMERVEFLRKKLQDVHNF-NH2 [W23F] | 0.2 | 59 | 
10 | SVSEIQLMHNLGKHLNSMERVEFLRKLIQDIHNF-NH2 [W23F/K27L/L28I/V31I] | 0.631 | 68 | 
11 | SVSEIQLMHNLGKHLNSMERVEFLRKLLQDVHNF-NH2 [W23F/K27L] | 0.251 | 26.4 | 
12 | SVSEIQLMHNLGKHLNSMERVEWLRKKIQDIHNF-NH2 [L28I/V31I] | 0.251 | 135 | IC50 ([1]; read-out: IC50 (nM) RG): 0.31 nM
13 | SVSEIQLMHNLGKHLNSMERVEWLRKKIQDVHNF-NH2 [L28I] |  | 45 | IC50 ([3]; n = 3, GTPγS to uncouple receptor and G protein, read-out: IC50 Log M RO (converted)): 3.98 nM; IC50 ([1]; read-out: IC50 (nM) RG): 0.1 nM
14 | SVSEIQLMHNLGKHLNSMERVEWLRKKLQDIHNF-NH2 [V31I] | 0.251 | 110 | IC50 ([1]; read-out: IC50 (nM) RG): 0.31 nM
15 | SVSEIQLMHNLGKHLNSMERVEWLRKLLQDIHNF-NH2 [K27L/V31I] | 0.501 | 36.8 | 
16 | SVSEIQLMHNLGKHLNSMERVEWLRKLLQDVHNF-NH2 [K27L] |  | 11.9 | 
17 | quadruply mutant PTHrP peptide: PTHrP(12-34)NH2 scaffold with swaps at all four positions 23′, 27′, 28′, 31′ (GKSIQDLRRRFWLHHKLAEVHTA-NH2) |  |  | ECD-binding (ability to compete biotin-PTH / MBP-PTH1R-ECD interaction) [2]: normal binding to the ECD
